Test results from US5498780A, “Platinum complex and malignant tumor treating drug containing the same” (SS Pharmaceutical Co., Ltd., priority 1994, dated 1996).

Columns and labels:
[1] = test system: murine P388 leukemia cell; experiment: Antitumor effect on murine P388 leukemia cell; assay type: in vivo, murine; male CDF1 mice; settings: for ILSmax (maximum percent increase in life-span) / ILS50 (dose which shows 50% of the ILS value by 5 administrations) / dose corresponding to ILSmax: P388, i.p. once a day for 5 days; for ILSmax (maximum percent increase in life-span): 30 days observation; for ILS50 (dose which shows 50% of the ILS value by 5 administrations): linear regression; for TI (therapeutic index, LD50 value/ILS50 value): P388
Method: (§1) Murine L1210 leukemia cells (1×10^5 cells) were inoculated peritoneally into six-week-old male CDF1 mice on day 0. From the next day after the inoculation, a drug (the compound of the invention or a compound for comparison) was administered peritoneally once a day for 5 days. After 30 days of observation, the percent increase in life-span (ILS) was calculated as follows: […]
(§2) T: mean survival days of the drug-treated group
(§3) C: mean survival days of control group
(§4) In these tables, ILSmax means maximum ILS value (%), and corresponding dose (mg/kg) is Shown in parenthesis.
Antitumor effect on murine P388 leukemia cell:
The test of Test Example 1 was repeated except that 1×10^6 of murine P388 leukemia cells were used instead of 1×10^5 of murine L1210 leukemia cells.

[2] = test system: murine L1210 leukemia cell; experiment: Antitumor effect on murine L1210 leukemia cell (increase in life-span of inoculated mice); assay type: in vivo, murine; male CDF1 mice; settings: for ILSmax (maximum percent increase in life-span) / ILS50 (dose which shows 50% of the ILS value by 5 administrations) / dose corresponding to ILSmax: L1210, i.p. once a day for 5 days; for ILSmax (maximum percent increase in life-span): 30 days observation; for ILS50 (dose which shows 50% of the ILS value by 5 administrations): linear regression; for TI (therapeutic index, LD50 value/ILS50 value): L1210
Method: as §1, §2, §3, §4

[3] = test system: cisplatin-resistant murine L1210 leukemia cell (L1210/DDP); experiment: Antitumor effect on cisplatin-resistant murine L1210 leukemia cell (L1210/DDP); assay type: in vivo, murine; male CDF1 mice; settings: for ILSmax (maximum percent increase in life-span) / dose corresponding to ILSmax / ILS50 (dose which shows 50% of the ILS value by 5 administrations): i.p. once a day for 5 days; for ILSmax (maximum percent increase in life-span): 30 days observation; for ILS50 (dose which shows 50% of the ILS value by 5 administrations): linear regression
Method: as §1, §2, §3
In these tables, ILSmax means maximum ILS value (%), and corresponding dose (mg/kg) is Shown in parenthesis. In this test, cisplatin and carboplatin were respectively tested in each test lot for accurate comparison.
Antitumor effect on cisplatin-resistant murine L1210 leukemia cell (L1210/DDP):
The test of Test Example 1 was repeated except that cisplatin-resistant murine L1210 leukemia cell (L1210/DDP) was used instead of murine L1210 leukemia cell.

[4] = 50% lethal dose by single peritoneal administration, obtained at the time of the dose setting; assay type: in vivo, CDF1 mice
Text: as §4

SMILES | ILSmax (maximum percent increase in life-span) ([1]; Table 8 test lot) | ILSmax (maximum percent increase in life-span) ([1]; Table 10 test lot) | ILS50 (dose which shows 50% of the ILS value by 5 administrations) ([1]; Table 8 test lot) | ILS50 (dose which shows 50% of the ILS value by 5 administrations) ([1]; Table 10 test lot) | dose corresponding to ILSmax ([1]; Table 8 test lot) | dose corresponding to ILSmax ([1]; Table 10 test lot) | TI (therapeutic index, LD50 value/ILS50 value) ([1]; Table 8 test lot) | TI (therapeutic index, LD50 value/ILS50 value) ([1]; Table 10 test lot) | ILSmax (maximum percent increase in life-span) ([2]; Table 4 test lot) | ILSmax (maximum percent increase in life-span) ([2]; Table 5 test lot) | ILS50 (dose which shows 50% of the ILS value by 5 administrations) ([2]; Table 4 test lot) | ILS50 (dose which shows 50% of the ILS value by 5 administrations) ([2]; Table 5 test lot) | dose corresponding to ILSmax ([2]; Table 4 test lot) | dose corresponding to ILSmax ([2]; Table 5 test lot) | TI (therapeutic index, LD50 value/ILS50 value) ([2]; Table 4 test lot) | ILSmax (maximum percent increase in life-span) ([3]; Table 6 test lot) | ILSmax (maximum percent increase in life-span) ([3]; Table 7 test lot) | dose corresponding to ILSmax ([3]; Table 6 test lot) | dose corresponding to ILSmax ([3]; Table 7 test lot) | LD50 (50% lethal dose) [4] | other results
N.N.O=C([O-])C1(C(=O)[O-])CCC1.[Pt+2] [Carboplatin, carboplatin, reference compound] | 73.1% | 57.3% | 10.5 mg/kg | 13.8 mg/kg | 16.0 mg/kg | 32.0 mg/kg | 23.3 | 17.8 | 50.6% | 72.5% | 41.0 mg/kg | 33.9 mg/kg | 64.0 mg/kg | 64.0 mg/kg | 6.0 | 8.5% | 14.3% | 16.0 mg/kg | 64.0 mg/kg | 245.0 mg/kg | ILSmax (maximum percent increase in life-span) ([1]; Table 9 test lot): 79.8%; ILS50 (dose which shows 50% of the ILS value by 5 administrations) ([1]; Table 9 test lot): 12.1 mg/kg; dose corresponding to ILSmax ([1]; Table 9 test lot): 32.0 mg/kg; TI (therapeutic index, LD50 value/ILS50 value) ([1]; Table 9 test lot): 20.2; TI (therapeutic index, LD50 value/ILS50 value) ([2]; Table 5 test lot): 7.2
N.N.[Cl][Pt][Cl] [Cisplatin, cisplatin, reference compound] | > 120.4% | > 120.9% | < 0.5 mg/kg | < 0.5 mg/kg | 4.0 mg/kg | 4.0 mg/kg | – | – | 88.2% | 90.0% | 1.3 mg/kg | 1.1 mg/kg | 4.0 mg/kg | 4.0 mg/kg | – | 0.9% | 5.1% | 4.0 mg/kg | 4.0 mg/kg | – | ILSmax (maximum percent increase in life-span) ([1]; Table 9 test lot): > 156.7%; ILS50 (dose which shows 50% of the ILS value by 5 administrations) ([1]; Table 9 test lot): < 0.5 mg/kg; dose corresponding to ILSmax ([1]; Table 9 test lot): 4.0 mg/kg
N.NC1CCCCC1.[Cl][Pt][Cl] [Comparative drug A, cis-dichloroammine cyclohexylamineplatinum(II), reference compound] | 101.9% | – | < 1.0 mg/kg | – | 4.0 mg/kg | – | > 31.3 | – | 97.6% | – | < 1.0 mg/kg | – | 8.0 mg/kg | – | > 31.3 | > 157.5% | – | 1.0 mg/kg | – | 31.3 mg/kg | TI (therapeutic index, LD50 value/ILS50 value) ([3]; Table 6 test lot): > 31.3; ILS50 (dose which shows 50% of the ILS value by 5 administrations) ([3]; Table 6 test lot): < 1.0 mg/kg
CNO.N.[Cl][Pt][Cl] [Compound No. 1, cis-dichloroammine (N-methylhydroxylamine)platinum(II)] | > 136.1% | – | < 0.5 mg/kg | – | 4.0 mg/kg | – | > 31.2 | – | – | – | – | – | – | – | – | – | – | – | – | 15.6 mg/kg | –
CON.N.[Cl][Pt][Cl] [Compound No. 2, cis-dichloroammine (O-methylhydroxylamine)platinum(II)] | 126.9% | – | < 0.5 mg/kg | – | 4.0 mg/kg | – | > 44.2 | – | – | – | – | – | – | – | – | – | – | – | – | 22.1 mg/kg | –
N.ONC1CCCCC1.[Cl][Pt][Cl] [Compound No. 4, cis-dichloroammine (N-cyclohexylhydroxylamine)platinum(II)] | 108.3% | – | 1.1 mg/kg | – | 16.0 mg/kg | – | 80.2 | – | > 120.0% | – | 2.1 mg/kg | – | 8.0 mg/kg | – | 42.0 | > 183.0% | – | 2.0 mg/kg | – | 88.2 mg/kg | TI (therapeutic index, LD50 value/ILS50 value) ([3]; Table 6 test lot): > 88.2; ILS50 (dose which shows 50% of the ILS value by 5 administrations) ([3]; Table 6 test lot): < 1.0 mg/kg
CCON.N.[Cl][Pt][Cl] [Compound No. 5, cis-dichloroammine (O-ethylhydroxylamine)platinum(II)] | > 129.6% | – | 0.6 mg/kg | – | 4.0 mg/kg | – | 36.8 | – | > 109.4% | – | 0.9 mg/kg | – | 4.0 mg/kg | – | 24.6 | > 152.8% | – | 2.0 mg/kg | – | 22.1 mg/kg | TI (therapeutic index, LD50 value/ILS50 value) ([3]; Table 6 test lot): 27.6; ILS50 (dose which shows 50% of the ILS value by 5 administrations) ([3]; Table 6 test lot): 0.8 mg/kg
CC(C)(C)ON.N.[Cl][Pt][Cl] [Compound No. 7, cis-dichloroammine (O-tert-butylhydroxylamine)platinum(II)] | – | – | – | – | – | – | – | – | – | > 181.3% | – | 1.5 mg/kg | – | 8.0 mg/kg | – | – | > 206.1% | – | 1.0 mg/kg | 22.1 mg/kg | ILSmax (maximum percent increase in life-span) ([1]; Table 9 test lot): 92.3%; ILS50 (dose which shows 50% of the ILS value by 5 administrations) ([1]; Table 9 test lot): < 1.0 mg/kg; dose corresponding to ILSmax ([1]; Table 9 test lot): 2.0 mg/kg; TI (therapeutic index, LD50 value/ILS50 value) ([1]; Table 9 test lot): > 22.1; TI (therapeutic index, LD50 value/ILS50 value) ([2]; Table 5 test lot): 14.7; TI (therapeutic index, LD50 value/ILS50 value) ([3]; Table 7 test lot): > 22.1; ILS50 (dose which shows 50% of the ILS value by 5 administrations) ([3]; Table 7 test lot): < 1.0 mg/kg
CCO[NH][Pt]([Cl])([Cl])[NH]C(C)C [Compound No. 12, cis-dichloro(isopropylamine) (O-ethylhydroxylamine)platinum(II)] | – | – | – | – | – | – | – | – | – | 102.5% | – | 1.5 mg/kg | – | 8.0 mg/kg | – | – | > 206.1% | – | 2.0 mg/kg | 22.1 mg/kg | TI (therapeutic index, LD50 value/ILS50 value) ([2]; Table 5 test lot): 14.7; TI (therapeutic index, LD50 value/ILS50 value) ([3]; Table 7 test lot): > 22.1; ILS50 (dose which shows 50% of the ILS value by 5 administrations) ([3]; Table 7 test lot): < 1.0 mg/kg
CCON.N.O=C1[O][Pt][O]C(=O)C12CCC2 [Compound No. 15, (1,1-cyclobutane dicarboxylate)ammine (O-ethylhydroxylamine)platinum(II)] | – | 93.6% | – | 8.2 mg/kg | – | 32.0 mg/kg | – | 21.6 | – | – | – | – | – | – | – | – | – | – | – | 176.8 mg/kg | –
CCCO[NH][Pt]1([NH2])[O]C(=O)C2(CCC2)C(=O)[O]1 [Compound No. 16, (1,1-cyclobutane dicarboxylate)ammine (O-propylhydroxylamine)platinum(II)] | – | 72.7% | – | 8.2 mg/kg | – | 8.0 mg/kg | – | 21.6 | – | – | – | – | – | – | – | – | – | – | – | 176.8 mg/kg | –
CC(C)(C)O[NH][Pt]1([NH2])[O]C(=O)C2(CCC2)C(=O)[O]1 [Compound No. 17, (1,1-cyclobutane dicarboxylate)ammine (O-tert-butylhydroxylamine)platinum(II)] | – | 72.7% | – | 12.4 mg/kg | – | 32.0 mg/kg | – | 20.2 | – | – | – | – | – | – | – | – | – | – | – | 250.0 mg/kg | –
